The term IC50 denotes the concentration that gives 50% inhibition.

One assay deals with GM01896 cells (MPS II dermal fibroblasts). Briefly: Assay 1: MPS cellular assay, MPS II (heparan sulfate disaccharide biomarkers by LC-MS). The format is cell-based, human. The conditions noted are these: Assay 1 for MPS II, heparan sulfate disaccharide biomarkers (I2a4, I2a6, I2S0 and/or I2S6), read-out: IC50 Range. How it is done: Dermal fibroblasts from humans with an MPS disorder and from healthy donors are grown. Cells are expanded and kept in culture for analysis. Human foreskin fibroblasts can be obtained from the American Type Culture Collection (CRL-1634). Human dermal fibroblasts derived from biopsies of individuals are purchased from Coriell Institute: clinically healthy individuals, GM00408, GM00409, GM00200 (clinically unaffected sibling of an individual with metachromatic leukodystrophy), GM05659, GM08398, and GM15871 (clinically unaffected sibling of an individual with unclassified Ehlers-Danlos syndrome); heterozygous MPS I carriers, GM01392, GM01393 and GM0003; homozygous individuals affected with MPS I, GM06214, GM11495, GM00034, GM01391 and GM01256; individuals with MPS II, GM01896, GM03181, GM00615 and GM00298; individuals with MPS IIIA, GM00879, GM00643, GM00934, GM06110 and GM00629; MPS IIIB, GM01426; MPS IIIC, GM05157; MPS IIID, GM05093; and MPS VII, GM00121. All cells are grown in DMEM containing 50 U ml-1 penicillin, […] ml-1 streptomycin, 2 mM glutamine and 10% FBS. Cells are seeded on 15-cm-diameter tissue culture dishes, grown to confluence and maintained in culture for analysis. Sulfamidase activity in cell extracts is measured with 4-methylumbelliferyl-α-D-N-sulfoglucosaminide according the vendors instructions substituting Tris-acetate buffer (pH 6.5; Moscerdam).
Cells are treated with a compound of the invention at a concentration at or below 30 μM for 4 to 21 days. Cell monolayers are washed with phosphate buffered saline and detached by treatment with GIBCO trypsin-EDTA solution (Invitrogen). After centrifugation, the supernatant is removed and the cells are lysed in 0.5 mL of 0.1 N sodium hydroxide. The amount of protein is determined by bicinchoninic acid (BCA assay, Thermo Scientific). GAGs are isolated by anion exchange chromatography and digested with glycosaminoglycan lyases (heparinases I, II, and III, IBEX).
Enzymatically depolymerized GAG preparations are differentially mass labeled by reductive amination with [^12C6]aniline. Briefly, heparan sulfate disaccharides (1-10 pmol) are dried down in a centrifugal evaporator and reacted with [^12C6]aniline or [^13C6]aniline (15 μL, 165 μmol) and 15 μL of 1 M NaCNBH3 (Sigma-Aldrich) freshly prepared in dimethylsulfoxide/acetic acid (7:3, v/v) is added to each sample. Reactions are carried out at 37° C. for 16 h and then dried in a centrifugal evaporator. Unsubstituted amines are reacted with propionic anhydride (Sigma-Aldrich). Dried samples are reconstituted in 20 μL of 50% methanol, and 3 μL of propionic anhydride (Sigma-Aldrich, 23.3 μmol) is added. Reactions are carried out at ˜23° C. for 2 h. Acylated disaccharides are subsequently aniline tagged as described above. Each sample is mixed with commercially available standard unsaturated disaccharides (Seikagaku), standard N-sulfoglucosamine, glucosamine-6-sulfate, N-acetylgalactosamine-4-sulfate and N-acetylgalactosamine-6-sulfate (Sigma-Aldrich), and/or synthesized α-L-idopyranosyluronate-(1,4)-2-N-acetyl-2-deoxy-α/β-D-glucopyranoside (I0S0). All standards are tagged with [^13C6]aniline (Sigma-Aldrich). Samples are then analyzed by LC-MS using an LTQ Orbitrap Discovery electrospray ionization mass spectrometer (Thermo Scientific) equipped with quaternary HPLC pump (Finnigan Surveyor MS pump) and a reverse-phase capillary column as described in J. Biol. Chem. 2008, 283(48), 33674.
MPS II: Assay 1, as described above, was used to determine activity for MPS II using GM01896 cells. […] Extracted ion chromatograms were obtained. Cell viability was monitored using alamar blue or ATP quantification. IC50's were calculated using curve fitting within the ChemInnovation CBIS database system.
Take `Cn1nc(CCN2CCOCC2)c2ccc(-c3cc(Nc4ccc(-n5cccn5)cc4)nc(N4CCOCC4)n3)cc21` [{6-[1-methyl-3-(2-morpholin-4-ylethyl)(1H-indazol-6-yl)]-2-morpholin-4-ylpyrimidin-4-yl}(4-pyrazolylphenyl)amine]: the IC50 was less than 500 nM.

Still in this assay, the particulars now being: Homo sapiens, Fibroblast, Assay 1 for MPS II, heparan sulfate disaccharide biomarkers (I2a4, I2a6, I2S0 and/or I2S6), read-out: IC50 Range.
Consider `Cn1nc(CCCCO)c2ccc(-c3cc(Nc4ccc(Cl)cc4)nc(N4CCOCC4)n3)cc21` [4-(6-{6-[(4-chlorophenyl)amino]-2-morpholin-4-ylpyrimidin-4-yl}-1-methyl-1H-indazol-3-yl)butan-1-ol], for which the IC50 is 1000 to 5000 nM.
Regarding `Cn1nc(NCCCN2CCOCC2)c2ccc(-c3cc(Nc4ccc(Cl)cc4)nc(N4CCOCC4)n3)cc21` [(4-chlorophenyl)(6-{1-methyl-3-[(3-morpholin-4-ylpropyl)amino](1H-indazol-6-yl)}-2-morpholin-4-ylpyrimidin-4-yl)amine], the IC50 was in the range of 500 to 1000 nM.
On to `CNC(=O)c1ccc(Nc2cc(-c3ccc4ncn(C5CC5)c4c3)nc(N3CCOCC3)n2)cn1` [(5-{[6-(1-cyclopropylbenzimidazol-6-yl)-2-morpholin-4-ylpyrimidin-4-yl]amino}(2-pyridyl))-N-methylcarboxamide], for which the IC50 was 500 to 1000 nM.
Same read-out and setting: to `Clc1ccc(Nc2cc(-c3ccc4c(c3)ncn4CCCN3CCOCC3)nc(N3CCOCC3)n2)cc1` [(4-chlorophenyl){2-morpholin-4-yl-6-[1-(3-morpholin-4-ylpropyl)benzimidazol-5-yl]pyrimidin-4-yl}amine] belongs 1000 to 5000 nM; to `Cc1nc2ccc(-c3cc(Nc4ccc(Cl)cc4)nc(N4CCOCC4)n3)cc2n1CCN1CCOCC1` [(4-chlorophenyl){6-[2-methyl-1-(2-morpholin-4-ylethyl)benzimidazol-6-yl]-2-morpholin-4-ylpyrimidin-4-yl}amine], 500 to 1000 nM; to `Cc1nn(C)c2cc(-c3cc(Nc4ccc(-n5nccn5)cc4)nc(N4CCOCC4)n3)cnc12` [[6-(1,3-dimethylpyrazolo[4,5-b]pyridin-6-yl)-2-morpholin-4-ylpyrimidin-4-yl](4-(1,2,3-triazol-2-yl)phenyl)amine], less than 500 nM.
The same measure, in the same setting: to `Cc1nc(-c2ccc(Nc3cc(-c4ccc5cnn(C)c5c4)nc(N4CCOCC4)n3)cc2)no1` [[4-(5-methyl(1,2,4-oxadiazol-3-yl))phenyl][6-(1-methyl(1H-indazol-6-yl))-2-morpholin-4-ylpyrimidin-4-yl]amine] belongs 1000 to 5000 nM; to `Clc1ccc(Nc2cc(-c3ccc4cnn(CC5CC5)c4c3)nc(N3CCOCC3)n2)cc1` [(4-chlorophenyl){6-[1-(cyclopropylmethyl)(1H-indazol-6-yl)]-2-morpholin-4-ylpyrimidin-4-yl}amine], 1000 to 5000 nM.
On the same count and under the same terms, to `Cn1nc(CCN2CCOCC2)c2ccc(-c3cc(Nc4ccc(F)cc4)nc(N4CCOCC4)n3)cc21` [(4-fluorophenyl){6-[1-methyl-3-(2-morpholin-4-ylethyl)(1H-indazol-6-yl)]-2-morpholin-4-ylpyrimidin-4-yl}amine] belongs 1000 to 5000 nM; to `Cn1cnc2ccc(Nc3cc(-c4ccc5cnn(C)c5c4)nc(N4CCOCC4)n3)cc21` [[6-(1-methyl(1H-indazol-6-yl))-2-morpholin-4-ylpyrimidin-4-yl](1-methylbenzimidazol-6-yl)amine], 500 to 1000 nM; to `Cn1c(CN2CCCC2)nc2ccc(-c3cc(Nc4ccc(Cl)cc4)nc(N4CCOCC4)n3)cc21` [(4-chlorophenyl){6-[1-methyl-2-(pyrrolidinylmethyl)benzimidazol-6-yl]-2-morpholin-4-ylpyrimidin-4-yl}amine], 1000 to 5000 nM.
As to `Cn1ncc2ccc(-c3cc(Nc4ccc(-c5ccc[nH]5)cc4)nc(N4CCOCC4)n3)cc21` [[6-(1-methyl(1H-indazol-6-yl))-2-morpholin-4-ylpyrimidin-4-yl](4-pyrrol-2-ylphenyl)amine], the IC50 is 1000 to 5000 nM.
Regarding `Cc1nn(C)c2cc(-c3cc(Nc4ccc(-c5cccn5C)cc4)nc(N4CCOCC4)n3)ccc12` [[6-(1,3-dimethyl(1H-indazol-6-yl))-2-morpholin-4-ylpyrimidin-4-yl][4-(1-methylpyrrol-2-yl)phenyl]amine], the IC50 lay within 500 to 1000 nM.
Regarding `Clc1ccc(Nc2cc(-c3ccc4nn(CC5CC5)cc4c3)nc(N3CCOCC3)n2)cc1` [(4-chlorophenyl){6-[2-(cyclopropylmethyl)(2H-indazol-5-yl)]-2-morpholin-4-ylpyrimidin-4-yl}amine], the half-inhibitory concentration (IC50) lay in the range of 1000 to 5000 nM.
In the case of `COCCn1cnc2ccc(-c3cc(Nc4ccc(C(=O)O)cc4)nc(N4CCOCC4)n3)cc21` [4-({6-[1-(2-methoxyethyl)benzimidazol-6-yl]-2-morpholin-4-ylpyrimidin-4-yl}amino)benzoic acid], the IC50 was 1000 to 5000 nM.
For `CNC(=O)c1ccc(Nc2cc(-c3ccc4cnn(C5CC5)c4c3)nc(N3CCOCC3)n2)cc1` [(4-{[6-(1-cyclopropyl(1H-indazol-6-yl))-2-morpholin-4-ylpyrimidin-4-yl]amino}phenyl)-N-methylcarboxamide], the 50% inhibitory concentration (IC50) is less than 500 nM.
Still for that read-out and setting: as for `CNC(=O)c1ccc(Nc2cc(-c3ccc4c(cnn4CCN4CCOCC4)c3)nc(N3CCOCC3)n2)cc1` [N-methyl[4-({2-morpholin-4-yl-6-[1-(2-morpholin-4-ylethyl)(1H-indazol-5-yl)]pyrimidin-4-yl}amino)phenyl]carboxamide], the figure is 500 to 1000 nM.
Still for that read-out and setting: as for `CN1CCN(Cc2nn(C)c3cc(-c4cc(Nc5ccc(Cl)cc5)nc(N5CCOCC5)n4)ccc23)CC1` [(4-chlorophenyl)(6-{1-methyl-3-[(4-methylpiperazinyl)methyl](1H-indazol-6-yl)}-2-morpholin-4-ylpyrimidin-4-yl)amine], the figure is 500 to 1000 nM; as for `Cn1nc(CCCN2CCOCC2)c2ccc(-c3cc(Nc4ccc(Cl)cc4)nc(N4CCOCC4)n3)cc21` [(4-chlorophenyl){6-[1-methyl-3-(3-morpholin-4-ylpropyl)(1H-indazol-6-yl)]-2-morpholin-4-ylpyrimidin-4-yl}amine], 1000 to 5000 nM; as for `Cn1ncc2ccc(-c3cc(Nc4ccc5[nH]ncc5c4)nc(N4CCOCC4)n3)cc21` [1H-indazol-5-yl[6-(1-methyl(1H-indazol-6-yl))-2-morpholin-4-ylpyrimidin-4-yl]amine], 1000 to 5000 nM.
Take `CNC(=O)c1ccc(Nc2cc(-c3ccc4ncn(CCCN5CCOCC5)c4c3)nc(N3CCOCC3)n2)cc1` [N-methyl[4-({2-morpholin-4-yl-6-[1-(3-morpholin-4-ylpropyl)benzimidazol-6-yl]pyrimidin-4-yl}amino)phenyl]carboxamide]: the IC50 lay in the range of 1000 to 5000 nM.
`CNC(=O)c1ccc(Nc2cc(-c3ccc4nc(C)n(C)c4c3)nc(N3CCOCC3)n2)cc1` [(4-{[6-(1,2-dimethylbenzimidazol-6-yl)-2-morpholin-4-ylpyrimidin-4-yl]amino}phenyl)-N-methylcarboxamide]: the IC50 was less than 500 nM.
Same read-out and setting: as for `Cn1nc(CCN2CCOCC2)c2ccc(-c3cc(Nc4ccc(-c5c[nH]cn5)cc4)nc(N4CCOCC4)n3)cc21` [(4-imidazol-4-ylphenyl){6-[1-methyl-3-(2-morpholin-4-ylethyl)(1H-indazol-6-yl)]-2-morpholin-4-ylpyrimidin-4-yl}amine], the figure is 1000 to 5000 nM; as for `Cc1nncn1-c1ccc(Nc2cc(-c3ccc4cnn(C)c4c3)nc(N3CCOCC3)n2)cc1` [[4-(3-methyl(1,2,4-triazol-4-yl))phenyl][6-(1-methyl(1H-indazol-6-yl))-2-morpholin-4-ylpyrimidin-4-yl]amine], 500 to 1000 nM.
On the same count and under the same terms, as for `Cc1nc2cc(-c3cc(Nc4ccc(Cl)cc4)nc(N4CCOCC4)n3)ccc2n1C1CCC1` [(4-chlorophenyl)[6-(1-cyclobutyl-2-methylbenzimidazol-5-yl)-2-morpholin-4-ylpyrimidin-4-yl]amine], the figure is 1000 to 5000 nM.

Source of the values: patent US20190151312A1, “HEPARAN SULFATE BIOSYNTHESIS INHIBITORS FOR THE TREATMENT OF DISEASES” (BioMarin Pharmaceutical Inc., priority 2014, published 2019).
